Data on 3 compounds can be found in patent publication US20230233559A1, “COMBINATION OF ZIDOVUDINE AND FLUOROQUINOLONE ANTIBIOTIC” (HELPERBY THERAPEUTICS LIMITED, priority 2019, published 2023).

Holding throughout (type): cell-based
What all share (conditions): fluoroquinolone alone

The subject of experiment [1] is NCTC13443 NDM-1 Klebsiella pneumoniae. Put plainly: Chequerboard MIC, log phase NCTC13443. As to the method: (§1) The chequerboard method used in Example 1 followed the protocols detailed in Antimicrob Chemo (2013) 68, 374-384. Zidovudine and ciprofloxacin were obtained from commercially available sources. The bacteria used were BAA2469 NDM-1 Escherichia coli, BAA2470 NDM-1 Klebsiella pneumoniae, BAA2471 NDM-1 Escherichia coli, BAA2472 NDM-1 Klebsiella pneumoniae, and NCTC13443 NDM-1 Klebsiella pneumoniae. All strains were obtained from a commercial source and log phase growth of the bacteria was carried out using methods known in the art.
(§2) The effects of the combination of the present invention were examined by calculating the fractional inhibitory concentration index (FICI) of each combination, as follows:
(§3) (MIC of drug A, tested in combination)/(MIC of drug A, tested alone)+(MIC of drug B, tested in combination)/(MIC of drug B, tested alone).
(§4) The interaction of the combination was defined as showing synergy if the FICI was ≤0.5, no interaction if the FICI was >0.5 but <4.0 and antagonism if the FICI was >4.0.
(§5) The method and bacterial strains were identical to Example 1. Zidovudine and levofloxacin were obtained from commercially available sources. The effects of the combination of the present invention were examined by calculating the MIC for each drug alone and in combination in the same manner as Example 1.
(§6) The method and bacterial strains were identical to Example 1. Zidovudine and moxifloxacin were obtained from commercially available sources. The effects of the combination of the present invention were examined by calculating the MIC for each drug alone and in combination in the same manner as Example 1.

Experiment [2] concerns BAA2470 NDM-1 Klebsiella pneumoniae. Put plainly: Chequerboard MIC, log phase BAA2470. As to the method:
as §1, §2, §3, §4, §5, §6

For experiment [3], the system named is BAA2469 NDM-1 Escherichia coli. Put plainly: Chequerboard MIC, log phase BAA2469. As for the experimental part:
as §1, §2, §3, §4, §5, §6

Experiment [4] deals with BAA2472 NDM-1 Klebsiella pneumoniae. The experiment can be described thus: Chequerboard MIC, log phase BAA2472. As for the experimental part: as §1, §2, §3, §4, §5, §6
Experiment [5] concerns BAA2471 NDM-1 Escherichia coli. The experiment can be described thus: Chequerboard MIC, log phase BAA2471. As for the experimental part: as §1, §2, §3, §4, §5, §6

Broadly, the MIC is the lowest concentration that inhibits growth of the organism. Turning to `O=C(O)c1cn(C2CC2)c2cc(N3CCNCC3)c(F)cc2c1=O` [Ciprofloxacin, 1-cyclopropyl-6-fluoro-1,4-dihydro-4-oxo-7-(1-piperazinyl)-3-quinolinecarboxylic acid], the MIC in experiment [1] was 64 µg/mL; in experiment [2], 8 µg/mL; in experiment [3] it was 64 µg/mL; in experiment [4], 64 µg/mL; in experiment [5], more than 64 µg/mL.
Regarding `C[C@H]1COc2c(N3CCN(C)CC3)c(F)cc3c(=O)c(C(=O)O)cn1c23` [Levofloxacin, (2S)-7-fluoro-2-methyl-6-(4-methylpiperazin-1-yl)-10-oxo-4-oxa-1-azatricyclo[7.3.1.0^5,13]trideca-5(13),6,8,11-tetraene-11-carboxylic acid], the MIC in experiment [1] amounted to 32 µg/mL; in experiment [2], 8 µg/mL; in experiment [3], 8 µg/mL; in experiment [4], 32 µg/mL; in experiment [5], 32 µg/mL.
Regarding `COc1c(N2C[C@@H]3CCCN[C@@H]3C2)c(F)cc2c(=O)c(C(=O)O)cn(C3CC3)c12` [Moxifloxacin, 7-[(4aS,7aS)-1,2,3,4,4a,5,7,7a-octahydropyrrolo[3,4-b]pyridin-6-yl]-1-cyclopropyl-6-fluoro-8-methoxy-4-oxoquinoline-3-carboxylic acid], the MIC in experiment [1] stood at 128 µg/mL; in experiment [2] it was 32 µg/mL; in experiment [3] it was 16 µg/mL; in experiment [4], 128 µg/mL; in experiment [5], 128 µg/mL.
